This experiment deals with T1, recombinant JAK2 (Homo sapiens, UniProt O60674).
T1 construct: purchased Upstate Cell Signaling Solutions
As to the kind of experiment: IC50 value determinations for Jak2 kinase, luminescence-based kinase assay (Kinase-Glo). Conditions: Table 1. In kind it is biochemical. In general terms: In Kinase-Glo more light means more ATP remaining.

Counter-ions that a name gives are not always drawn.

T1 sequence (O60674 808-1132 limits assumed): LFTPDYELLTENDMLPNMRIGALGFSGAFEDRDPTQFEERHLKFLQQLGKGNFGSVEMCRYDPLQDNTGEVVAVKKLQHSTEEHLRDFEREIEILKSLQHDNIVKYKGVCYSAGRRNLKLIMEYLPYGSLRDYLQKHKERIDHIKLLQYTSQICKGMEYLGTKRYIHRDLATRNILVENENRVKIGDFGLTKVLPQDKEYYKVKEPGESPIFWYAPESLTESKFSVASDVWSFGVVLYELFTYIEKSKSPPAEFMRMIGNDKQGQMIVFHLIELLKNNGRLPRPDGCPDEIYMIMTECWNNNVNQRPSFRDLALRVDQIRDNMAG
Description: The IC50 values for compounds were determined using a luminescence-based kinase assay with recombinant JAK2 obtained from Upstate Cell Signaling Solutions. In white, flat bottom, 96-well plates (Nunc) parallel assays were run at room temperature at a final volume of 50 μL.
Two control reactions were also ran: one reaction containing no compound and the second containing neither inhibitor nor peptide substrate. IC50 values were derived from experimental data using the non-linear curve fitting capabilities of Prism (Version 4; GraphPad Software).

Regarding `Cc1cnc(Nc2ccc(N3CCN(C)CC3)cc2)nc1Nc1cccc2[nH]ccc12` [N4-(1H-indol-4-yl)-5-methyl-N2-(4-(4-methylpiperazin-1-yl)phenyl)pyrimidine-2,4-diamine Hydrochloride], the 50% inhibitory concentration (IC50) worked out at 9.53 nM. As for `Cc1cnc(Nc2ccc(OC3CCNCC3)cc2)nc1Nc1cccc2[nH]ccc12` [N4-(1H-indol-4-yl)-5-methyl-N2-(4-(piperidin-4-yloxy)phenyl)pyrimidine-2,4-diamine trifluoroacetic acid salt], the figure is 4.27 nM. With `Cc1cnc(Nc2ccc(OCCN3CCCC3)cc2)nc1Nc1ccc(Cl)c(Cl)c1` [N4-(3,4-Dichloro-phenyl)-5-methyl-N2-[4-(2-pyrrolidin-1-yl-ethoxy)-phenyl]-pyrimidine-2,4-diamine] the figure was 25.7 nM; with `COc1cc(Nc2nc(Nc3ccc(OC4CCNCC4)cc3)ncc2C)cc(OC)c1` [N4-(3,5-dimethoxyphenyl)-5-methyl-N2-(4-(piperidin-4-yloxy)phenyl)pyrimidine-2,4-diamine trifluoroacetate], 137 nM; with `Cc1cnc(Nc2ccc(N3CCN(C)CC3)cc2)nc1Nc1cccc(-n2cccc2)c1` [N4-(3-(1H-pyrrol-1-yl)phenyl)-5-methyl-N2-(4-(4-methylpiperazin-1-yl)phenyl)pyrimidine-2,4-diamine], 33.8 nM.

Take `Cc1cnc(Nc2ccc(N3CCN(C)CC3)cc2)nc1Nc1cccc(C(F)(F)F)c1C` [N4-(3-(trifluoromethyl)-2-methylphenyl)-5-methyl-N2-(4-(4-methylpiperazin-1-yl)phenyl)pyrimidine-2,4-diamine hydrochloride]: the concentration for half-maximal inhibition (IC50) was determined as 87.1 nM.

Regarding `Cc1cnc(Nc2ccc(OCCN3CCCC3)cc2)nc1Nc1cccc(Cl)c1` [N4-(3-Chloro-phenyl)-5-methyl-N2-[4-(2-pyrrolidin-1-yl-ethoxy)-phenyl]-pyrimidine-2,4-diamine], the 50% inhibitory concentration (IC50) worked out at 20.8 nM. As for `Cc1cnc(Nc2ccc(OCCN3CCCC3)cc2)nc1Nc1cccc(N(C)C)c1` [N4-(3-Dimethylamino-phenyl)-5-methyl-N2-[4-(2-pyrrolidin-1-yl-ethoxy)-phenyl]-pyrimidine-2,4-diamine], the half-maximal inhibitory concentration (IC50) was 19.7 nM. For the compound `Cc1ccc(Nc2nc(Nc3ccc(N4CCN(C)CC4)cc3)ncc2C)cc1S(C)(=O)=O` [N4-(3-Methanesulfonyl-4-methyl-phenyl)-5-methyl-N2-[4-(4-methyl-piperazin-1-yl)-phenyl]-pyrimidine-2,4-diamine], the IC50 was found to be 160 nM. As for `COc1cccc(Nc2ccnc(Nc3ccc(OCCN4CCCC4)cc3)n2)c1C` [N4-(3-Methoxy-2-methyl-phenyl)-N2-[4-(2-pyrrolidin-1-yl-ethoxy)-phenyl]-pyrimidine-2,4-diamine], the figure is 371 nM; as for `Cc1cnc(Nc2ccc(C(C)N3CCOCC3)cc2)nc1Nc1cccc(C(C)(C)C)c1` (centres unmarked) [N4-(3-tert-butylphenyl)-5-methyl-N2-(4-(1-morpholinoethyl)-phenyl)pyrimidine-2,4-diamine Hydrochloride], 19.9 nM; as for `Cc1cnc(Nc2ccc(-n3ccnc3C)cc2)nc1Nc1cccc(C(C)(C)C)c1` [N4-(3-tert-butylphenyl)-5-methyl-N2-(4-(2-methyl-1H-imidazol-1-yl)phenyl)pyrimidine-2,4-diamine Hydrochloride], 38.4 nM. As for `Cc1cnc(Nc2ccc(N3CCN(C)CC3)cc2)nc1Nc1cccc(C(C)(C)C)c1` [N4-(3-tert-butylphenyl)-5-methyl-N2-(4-(4-methylpiperazin-1-yl)phenyl)pyrimidine-2,4-diamine Hydrochloride], the figure is 4.7 nM. As to `Cc1cnc(Nc2ccc(C3CCNCC3)cc2)nc1Nc1cccc(C(C)(C)C)c1` [N4-(3-tert-butylphenyl)-5-methyl-N2-(4-(piperidin-4-yl)phenyl)pyrimidine-2,4-diamine Hydrochloride], the half-maximal inhibitory concentration (IC50) turned out to be 20.9 nM. With `Cc1cnc(Nc2ccc(OC3CCNCC3)cc2)nc1Nc1cccc(C(C)(C)C)c1` [N4-(3-tert-butylphenyl)-5-methyl-N2-(4-(piperidin-4-yloxy)phenyl)pyrimidine-2,4-diamine Hydrochloride] the figure was 2.73 nM; with `Cc1cnc(Nc2ccc(OCCN3CCCC3)cc2)nc1Nc1ccc(Cl)c(F)c1` [N4-(4-Chloro-3-fluoro-phenyl)-5-methyl-N2-[4-(2-pyrrolidin-1-yl-ethoxy)-phenyl]-pyrimidine-2,4-diamine], 40.1 nM. Consider `COc1cc(Nc2nc(Nc3cccc(N4CCNCC4)c3)ncc2C)ccc1Cl` [N4-(4-Chloro-3-methoxy-phenyl)-5-methyl-N2-(3-piperazin-1-yl-phenyl)-pyrimidine-2,4-diamine], for which the IC50 amounted to 9.52 nM.

Take `COc1cc(Nc2nc(Nc3cccc(CN4CCNCC4)c3)ncc2C)ccc1Cl` [N4-(4-Chloro-3-methoxy-phenyl)-5-methyl-N2-(3-piperazin-1-ylmethyl-phenyl)-pyrimidine-2,4-diamine]: the IC50 is 15.8 nM. With `COc1cc(Nc2nc(Nc3ccc(N4CCOCC4)cc3)ncc2C)ccc1Cl` [N4-(4-Chloro-3-methoxy-phenyl)-5-methyl-N2-(4-morpholin-4-yl-phenyl)-pyrimidine-2,4-diamine] the figure was 130 nM. With `COc1cc(Nc2nc(Nc3ccc(CN4CCOCC4)cc3)ncc2C)ccc1Cl` [N4-(4-Chloro-3-methoxy-phenyl)-5-methyl-N2-(4-morpholin-4-ylmethyl-phenyl)-pyrimidine-2,4-diamine trifluoroacetate] the figure was 13.3 nM; with `COc1cc(Nc2nc(Nc3ccc(CN4CCNCC4)cc3)ncc2C)ccc1Cl` [N4-(4-Chloro-3-methoxy-phenyl)-5-methyl-N2-(4-piperazin-1-ylmethyl-phenyl)-pyrimidine-2,4-diamine], 15.2 nM; with `COc1cc(Nc2nc(Nc3ccc(N4CCCCC4)cc3)ncc2C)ccc1Cl` [N4-(4-Chloro-3-methoxy-phenyl)-5-methyl-N2-(4-piperidin-1-yl-phenyl)-pyrimidine-2,4-diamine], 35.3 nM. As for `COc1cc(Nc2nc(Nc3ccc(-n4cccn4)cc3)ncc2C)ccc1Cl` [N4-(4-Chloro-3-methoxy-phenyl)-5-methyl-N2-(4-pyrazol-1-yl-phenyl)-pyrimidine-2,4-diamine trifluoroacetate], the figure is 35.3 nM. `COc1cc(Nc2nc(Nc3ccc(Cn4cccn4)cc3)ncc2C)ccc1Cl` [N4-(4-Chloro-3-methoxy-phenyl)-5-methyl-N2-(4-pyrazol-1-ylmethyl-phenyl)-pyrimidine-2,4-diamine]: the half-inhibitory concentration (IC50) was found to be 18.9 nM.

Take `COc1cc(Nc2nc(Nc3ccc(N4CCNCC4)nc3)ncc2C)ccc1Cl` [N4-(4-Chloro-3-methoxy-phenyl)-5-methyl-N2-(6-piperazin-1-yl-pyridin-3-yl)-pyrimidine-2,4-diamine]: the IC50 was 12.1 nM.

For `COc1cc(Nc2nc(Nc3ccc(N4CCN(C)CC4)cc3)ncc2C)ccc1Cl` [N4-(4-Chloro-3-methoxy-phenyl)-5-methyl-N2-[4-(4-methyl-piperazin-1-yl)-phenyl]-pyrimidine-2,4-diamine], the IC50 is 5.5 nM. With `COc1cc(Nc2nc(Nc3ccc(CN4CCN(C)CC4)cc3)ncc2C)ccc1Cl` [N4-(4-Chloro-3-methoxy-phenyl)-5-methyl-N2-[4-(4-methyl-piperazin-1-ylmethyl)-phenyl]-pyrimidine-2,4-diamine] the figure was 12 nM. With `COc1cc(Nc2nc(Nc3ccc(S(=O)(=O)C4CCNCC4)cc3)ncc2C)ccc1Cl` [N4-(4-Chloro-3-methoxy-phenyl)-5-methyl-N2-[4-(piperidine-4-sulfonyl)-phenyl]-pyrimidine-2,4-diamine] the figure was 13 nM; with `Cc1cc(Nc2nc(Nc3ccc(OC4CCNCC4)cc3)ncc2C)ccc1Cl` [N4-(4-Chloro-3-methyl-phenyl)-5-methyl-N2-[4-(piperidin-4-yloxy)-phenyl]-pyrimidine-2,4-diamine], 8.41 nM; with `Cc1cnc(Nc2ccc(OC3CCNCC3)cc2)nc1Nc1ccc(Cl)c(C(F)(F)F)c1` [N4-(4-Chloro-3-trifluoromethyl-phenyl)-5-methyl-N2-[4-(piperidin-4-yloxy)-phenyl]-pyrimidine-2,4-diamine], 11.4 nM.

For `Cc1cnc(Nc2ccc(OCCN3CCCC3)cc2)nc1Nc1ccc(Cl)cc1` [N4-(4-Chloro-phenyl)-5-methyl-N2-[4-(2-pyrrolidin-1-yl-ethoxy)-phenyl]-pyrimidine-2,4-diamine trifluoroacetate], the IC50 stood at 18.2 nM. With `COc1cc(Nc2nc(Nc3ccc(OCCN4CCCC4)cc3)ncc2C)ccc1F` [N4-(4-Fluoro-3-methoxy-phenyl)-5-methyl-N2-[4-(2-pyrrolidin-1-yl-ethoxy)-phenyl]-pyrimidine-2,4-diamine] the figure was 14.8 nM. On to `COc1ccc(Nc2ccnc(Nc3ccc(OCCN4CCCC4)cc3)n2)cc1` [N4-(4-Methoxy-phenyl)-N2-[4-(2-pyrrolidin-1-yl-ethoxy)-phenyl]-pyrimidine-2,4-diamine trifluoroacetate], for which the IC50 is 4330 nM. As for `Cc1cnc(Nc2ccc(CN3CCNCC3)cc2)nc1Nc1ccc(Cl)c2[nH]ccc12` [N4-(7-chloro-1H-indol-4-yl)-5-methyl-N2-(4-((piperazin-1-yl)methyl)phenyl)pyrimidine-2,4-diamine Hydrochloride], the figure is 694 nM; as for `Cc1cnc(Nc2ccc(N3CCN(C)CC3)cc2)nc1Nc1cccc2c1OCO2` [N4-Benzo[1,3]dioxol-4-yl-5-methyl-N2-[4-(4-methyl-piperazin-1-yl)-phenyl]-pyrimidine-2,4-diamine], 14.2 nM; as for `COc1cc(Nc2ncc(C)c(Nc3cccc4c3OCO4)n2)ccc1OCCN1CCCC1` [N4-Benzo[1,3]dioxol-4-yl-N2-[3-methoxy-4-(2-pyrrolidin-1-yl-ethoxy)-phenyl]-5-methyl-pyrimidine-2,4-diamine], 9.34 nM. As for `Cc1cnc(Nc2ccc(OCCN3CCCC3)cc2)nc1Nc1ccc2c(c1)OCO2` [N4-Benzo[1,3]dioxol-5-yl-5-methyl-N2-[4-(2-pyrrolidin-1-yl-ethoxy)-phenyl]-pyrimidine-2,4-diamine trifluoroacetate], the figure is 87.2 nM; as for `Cc1cnc(Nc2ccc(OCCN3CCCC3)cc2)nc1Nc1csc2ccccc12` [N4-Benzo[b]thiophen-3-yl-5-methyl-N2-[4-(2-pyrrolidin-1-yl-ethoxy)-phenyl]-pyrimidine-2,4-diamine], 12.4 nM.

A word on the IC50: it is the concentration that gives 50% inhibition.

Values taken from patent US8604042B2, “Bi-aryl meta-pyrimidine inhibitors of kinases” (TargeGen, Inc., priority 2005, dated 2013).
